Patent US6146615A, “Contrast agents for image enhancement in magnetic resonance imaging” (priority 1999, dated 2000)
Entries after “also recorded” stand apart in the source; their conditions may differ.

How the values were obtained:
liver and kidney [1] = experiment: MR imaging experiments on healthy rats: percent enhancement of liver and kidney; assay type: in vivo, rat (female Fischer 344); conditions: 0.10 mmol/kg, tail vein, FIG. 1
Method: Animal studies were performed with a 1.5-T superconducting MR unit (Signa. GE Medical Systems) using a send-and-receive head coil containing two anesthetized female Fischer 344 rats. After a localizer image were obtained, a spin-echo pulse sequence were used with a 256×256 matrix (three signals acquired) over a 20-cm field of view with a thickness of 3 mm and a 1.5-mm intersection gap. The pulse sequence parameters were TR =300 ms and TE =20 ms. Sagittal images were collected before administration of the contrast agent, and after administration, five more images were collected. Operator defined region-of-interest (ROI) measurements were made upon the organs under study for the pre- and postcontrast images. ROI measurements were recorded for the liver and kidney. For the liver, three slices were studied and for the kidneys, a single slice through each kidney was studied.
Percent enhancement was calculated by the following equation: [formula]
Female Fischer 334 rats were used in the imaging experiments. The subjects were weighed and anesthetized with 65 mg/kg pentobarbital. The preinjection pulse sequence was performed, then the contrast agent was administered. The concentration used was 0.10 mmollkg with an injection volume of 0.5 mL used throughout, administered over a time range of approximately three minutes. […]

liver and kidney [2] = conditions: over the same time period as FIG. 1; Davies et al. 1996, U.S. Pat. No. 5,494,656; cited from earlier work
[3] = tested on: implanted prostatic tumors (Dunning R3327, MAT/Lu); experiment: T1-weighted MRI of tumor-bearing rats: percentage enhancement of tumor; assay type: in vivo, rat (inbred Copenhagen, male)
Text: (§1) A T1 -weighted MRI examination (SE 400/15; SISCO SIS 85, 2 T) of the iron complex of ligand XI, Fe-DESAC, in rats (inbred Copenhagen, male, ca. 250 g bw) with implanted prostatic tumors (Dunning R3327, MAT/Lu) in the thigh muscles has been performed.
Thus, differentiation of tumor from surrounding muscle was straightforward with both contrast agents.
(§2) A T1 -weighted MRI examination (SE 400/15; SISCO SIS 85, 2 T) of three of these new MR contrast agents, the Fe(III) complexes of ligands XI, XVII and XXII in rats (inbred Copenhagen, male, ca. 250 g bw) with implanted prostatic tumors (Dunning R3327, MAT/Lu) in the thigh muscles was performed.

Muscle = experiment: T1-weighted MRI of tumor-bearing rats: percentage enhancement of muscle; assay type: in vivo, rat (inbred Copenhagen, male); conditions: 100 μmol agent/kg bw iv, muscle line below large tumor
Text: as §1, §2

mice = conditions: metal chloride salts in aqueous solution, mice i.p.; cited from earlier work

Molecule: Fe(III) tris(tironate)
- liver-specificity (liver and kidney [1]): does not show this tissue specificity
- liver enhancement (liver and kidney [2]): ≤ 15%

Molecule: O=C([O-])CN(CCN(CC(=O)[O-])CC(=O)O)CCN(CC(=O)[O-])CC(=O)O.[Gd+3] [Gd-DTPA, gadolinium ion chelated with the ligand diethylenetriaminepentaacetic acid]
- Percentage enhancement, large, necrotic tumor, 1 hr ([3]; 100 μmol agent/kg bw iv, 1 hr post contrast): +52 ± 14%
- Percentage enhancement, large, necrotic tumor, 24 hr ([3]; 100 μmol agent/kg bw iv, 24 hr post contrast): -11 ± 8%
- enhancement of necrotic tumor tissue ([3]; large (almost completely necrotic) tumor, 24 hr post contrast): no such enhancement was found with Gd-DTPA; also recorded: no significant enhancement of tumor
- differentiation of tumor from surrounding muscle ([3]; single iv application): straightforward
- tumor enhancement, 3 hr ([3]; single iv application, 3 hr post contrast): significant tumor enhancement
- Percentage enhancement, muscle (large, necrotic tumor), 1 hr (Muscle; 1 hr post contrast): +10 ± 6%
- Percentage enhancement, muscle (large, necrotic tumor), 24 hr (Muscle; 24 hr post contrast): -4 ± 2%

Molecule: [Mn+2] [manganese]
- LD50 (mice): 1.5 mmol/kg

Molecule: iron
- LD50 (mice): 1.6 mmol/kg

Molecule: [Gd] [gadolinium]
- LD50 (mice): 1.4 mmol/kg
